Test results published in the CheMixHub drug solubility set.

Experiment: xn = mol fraction of the nth substance listed, in the solute-free solvent

CC(=O)Oc1cccc2c1C(=O)c1c(OC(C)=O)cc(C(=O)O)cc1C2=O + CC#N + CCO
solubility (g/100 g solution)
Conditions | 273.15 K | 278.15 K | 283.15 K | 288.15 K | 293.15 K | 298.15 K | 303.15 K | 308.15 K | 313.15 K
x2 = 0.1109 | 0.00681 | 0.00922 | 0.0124 | 0.0163 | 0.0211 | 0.0275 | 0.0344 | 0.0422 | 0.0532
x2 = 0.2191 | 0.0086 | 0.0114 | 0.0156 | 0.0201 | 0.0251 | 0.0316 | 0.0396 | 0.0497 | 0.0623
x2 = 0.3248 | 0.0151 | 0.02 | 0.0259 | 0.032 | 0.0393 | 0.0474 | 0.0557 | 0.0657 | 0.0756
x2 = 0.428 | 0.0245 | 0.0312 | 0.039 | 0.0468 | 0.0553 | 0.0655 | 0.0782 | 0.0921 | 0.108
x2 = 0.5288 | 0.0313 | 0.0399 | 0.0509 | 0.0631 | 0.0754 | 0.0896 | 0.105 | 0.121 | 0.139
x2 = 0.6273 | 0.0353 | 0.0455 | 0.0574 | 0.0703 | 0.0834 | 0.0991 | 0.114 | 0.13 | 0.148
x2 = 0.7236 | 0.0286 | 0.0372 | 0.048 | 0.0598 | 0.0714 | 0.0842 | 0.098 | 0.113 | 0.129
x2 = 0.8178 | 0.0226 | 0.029 | 0.0374 | 0.0457 | 0.0538 | 0.0633 | 0.0742 | 0.0857 | 0.101
x2 = 0.9099 | 0.0216 | 0.0259 | 0.0322 | 0.0392 | 0.0467 | 0.0549 | 0.0647 | 0.0747 | 0.0869

CN1CCC(N(Cc2cccs2)c2ccccc2)CC1 + CCO + O
solubility (g/100 g solution)
Conditions | 278.15 K | 283.15 K | 288.15 K | 293.15 K | 298.15 K | 303.15 K | 308.15 K | 313.15 K | 318.15 K | 323.15 K
x2 = 0.04165 | 0.102 | 0.109 | 0.117 | 0.128 | 0.141 | 0.156 | 0.171 | 0.187 | 0.206 | 0.228
x2 = 0.08908 | 0.202 | 0.215 | 0.23 | 0.25 | 0.274 | 0.301 | 0.33 | 0.358 | 0.393 | 0.431
x2 = 0.1436 | 0.339 | 0.36 | 0.385 | 0.418 | 0.457 | 0.501 | 0.546 | 0.592 | 0.646 | 0.707
x2 = 0.2068 | 0.502 | 0.533 | 0.571 | 0.62 | 0.679 | 0.743 | 0.807 | 0.874 | 0.953 | 1.04
x2 = 0.2812 | 0.667 | 0.713 | 0.764 | 0.826 | 0.904 | 0.984 | 1.07 | 1.16 | 1.26 | 1.39
x2 = 0.3698 | 0.851 | 0.906 | 0.981 | 1.07 | 1.18 | 1.29 | 1.4 | 1.51 | 1.65 | 1.8
x2 = 0.4772 | 1.02 | 1.08 | 1.18 | 1.29 | 1.42 | 1.56 | 1.69 | 1.84 | 2.01 | 2.19
x2 = 0.6101 | 1.16 | 1.24 | 1.36 | 1.5 | 1.65 | 1.81 | 1.97 | 2.15 | 2.35 | 2.56
x2 = 0.7788 | 1.22 | 1.32 | 1.47 | 1.64 | 1.81 | 2 | 2.19 | 2.4 | 2.63 | 2.87

O=C(O)C1CC(O)CN1 (stereo not given) + O + CC#N
solubility (g/100 g solution)
Conditions | x2 = 0.1 | x2 = 0.2 | x2 = 0.3 | x2 = 0.4 | x2 = 0.5 | x2 = 0.6 | x2 = 0.7 | x2 = 0.8 | x2 = 0.9
283.15 K | 0.0362 | 0.0575 | 0.0864 | 0.185 | – | 0.635 | 1.45 | 3.22 | 9.59
293.15 K | 0.0605 | 0.101 | 0.188 | 0.517 | 1.13 | 1.82 | 2.8 | 4.82 | 12.7
303.15 K | 0.0971 | 0.136 | 0.287 | 0.813 | 1.6 | 2.88 | 4.48 | 7.02 | 15.9
313.15 K | 0.128 | 0.203 | 0.398 | 1.08 | 2.25 | 3.66 | 6.08 | 11.3 | 21.4
323.15 K | 0.187 | 0.327 | 0.778 | 1.71 | 3.12 | 5.6 | 10.2 | 16.7 | 24.8
